Here are results for 1 substance from PMC11610137, “TRIM4 enhances small-molecule-induced neddylated-degradation of CORO1A for triple negative breast cancer therapy” (Theranostics, 2024).

In general, Kd refers to the equilibrium constant for the complex coming apart. The low end stands for higher affinity, the high end for lower affinity.

The assay concerns the target T1, Coronin 1A (CORO1A) (Homo sapiens, UniProt P31146).
T1 construct: EGFP-tagged CORO1A overexpressed in HEK 293T cells (lysate)
Description: MST with EGFP-CORO1A cell lysate; supported by CETSA and DARTS in MDA-MB-231 cells. It counts as binding.

T1 sequence (P31146 2-461): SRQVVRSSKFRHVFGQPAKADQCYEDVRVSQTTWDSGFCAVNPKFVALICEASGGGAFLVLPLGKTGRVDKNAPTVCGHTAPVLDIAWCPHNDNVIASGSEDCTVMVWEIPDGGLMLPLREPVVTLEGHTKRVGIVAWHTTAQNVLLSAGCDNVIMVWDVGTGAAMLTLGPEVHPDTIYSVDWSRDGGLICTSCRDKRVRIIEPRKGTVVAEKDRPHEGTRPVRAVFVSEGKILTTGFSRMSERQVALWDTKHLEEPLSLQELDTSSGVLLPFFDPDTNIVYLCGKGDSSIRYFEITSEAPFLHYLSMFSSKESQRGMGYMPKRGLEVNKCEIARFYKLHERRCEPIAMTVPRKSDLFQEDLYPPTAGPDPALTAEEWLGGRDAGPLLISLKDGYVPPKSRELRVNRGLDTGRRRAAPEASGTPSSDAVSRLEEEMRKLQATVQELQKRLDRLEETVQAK

For the substance Aurovertin B [AB], binding was characterised by a dissociation constant (Kd) of 352 nM.
